Results: ChEMBL document CHEMBL1156829 (Proc Natl Acad Sci U S A, 2008)

What was measured:
Plasmodium falciparum [1] = assay: NOVARTIS: Inhibition of Plasmodium falciparum 3D7 (drug-susceptible) proliferation in erythrocyte-based infection assay; format: functional, organism-based; conditions: Plasmodium falciparum, 3D7
Plasmodium falciparum [2] = assay: NOVARTIS: Inhibition of Plasmodium falciparum W2 (drug-resistant) proliferation in erythrocyte-based infection assay; format: functional, organism-based; conditions: Plasmodium falciparum, W2; read-out: EC50
[3] = NOVARTIS: Cytotoxicity against human hepatocellular carcinoma cell line (Huh7); format: toxicity, cell-based, Huh-7; conditions: Huh7 cells (hepatocellular carcinoma cell line)

Structure (SMILES)	EC50 (Plasmodium falciparum [1]) [µM]	EC50 (Plasmodium falciparum [2]) [µM]	CC50 [3] [µM]
CSCCC(C(=O)NCC(=O)O)N1C(=O)c2cc(NC(C)=O)ccc2NC(=O)[C@@H]1c1ccccc1 (stereo not given in full)	> 1.25	0.0153	> 7.76
CCCCN(CCCC)CCCNc1ncnc2c1[nH]c1ccc(C)cc12	0.148	0.1	7.41
O=C(Cc1ccccc1)NCc1ccc(Nc2c(-c3cccnc3)nc3ccccn23)cc1	0.0342	< 0.00613	> 10
CN(C)c1ccc(/C=C2\SC(=Nc3ccc(F)cc3)NC2=O)cc1	0.361	0.493	> 10
CC(=O)Nc1ccccc1OC(F)(F)F	> 0.349	0.468	> 13.2
CC[n+]1c(/C=C/c2ccc(Cl)cc2)ccc2ccccc21	0.0608	< 0.00816	> 10
CC(C)CN(CC(=O)Nc1cc(C(C)(C)C)nn1-c1ccccc1)C(=O)Cc1cccs1	1.3	0.781	> 10
CCn1c(SCC(=O)N(c2ccccc2)c2ccccc2)nc2sc3c(c2c1=O)CCN(C)C3	> 5.08	7.34	> 100
O=[N+]([O-])c1cccc(C(O)CNCc2ccc3c(c2)OCO3)c1 (stereo not given)	1.01	0.111	> 100
Cc1cccc(NC(=O)N2CCN(C(=O)c3nc(-c4ccccc4)nc(C)c3C(=O)OC(C)C)CC2C)c1C (stereo not given)	0.509	0.384	> 5.76
COC(=O)C1=C(C)NC2=C(C(=O)CC(C)(C)C2)C1c1ccccc1[N+](=O)[O-] (stereo not given)	> 12.5	5.97	> 91.5
Cc1cccc(-c2nc3cc(NC(=S)NC(=O)c4ccc(Cl)cc4)ccc3o2)c1	> 1.66	0.183	> 10
COc1cccc(N2C(=O)/C(=C/c3cccnc3)SC2=S)c1	> 1.14	> 1.25	> 10
Clc1ccc(Nc2nc(Nc3ccc(Cl)cc3)c3ccccc3n2)cc1	0.148	0.11	19.6
Cc1cc(C)cc(NC2=C(c3ccccc3)C(=O)c3ccccc32)c1	1.83	1.53	> 100
COc1ccccc1NC(=O)c1cnn(-c2ccccc2)c1-n1cccc1	> 0.119	0.494	> 10
COc1ccc(N)cc1NC(=O)c1ccc(Cl)cc1Cl	> 0.89	0.0879	6.99
Cc1cc(N2CCN(C)CC2)nc2ccc(NC(=O)/C=C/c3ccc4c(c3)OCO4)cc12	> 1.25	0.292	> 10
CC(=O)N1CCc2cc(Br)cc(S(=O)(=O)N3CCCC(C)C3)c21 (stereo not given)	> 1.73	1.32	> 10
CN(C)CCCNc1ncnc2c1[nH]c1ccc(Cl)cc12	0.0261	0.0437	20.7
CC(=O)Nc1ccc(NC(=O)C(C)(C)CCl)cc1	> 1	0.0621	> 10.5
C=CCNC(=S)N1CCc2c([nH]c3ccccc23)C1C(F)(F)F (stereo not given)	0.208	0.108	70.7
COc1ccc(CN(C=O)/C=C2\Sc3ccccc3C2=O)cc1OC	> 1.25	0.617	> 10
COCCOC(=O)C1=C(C)NC2=C(C(=O)CC(c3ccc(OC)cc3)C2)C1c1ccc(F)cc1 (stereo not given)	0.161	0.059	> 100

Structure (SMILES)	EC50 (Plasmodium falciparum [1]) [µM]	EC50 (Plasmodium falciparum [2]) [µM]	CC50 [3] [µM]
Cc1oc2c(c1C(=O)N1CCCC1)C(=O)c1ccccc1C2=O	2.37	1.05	9.86
CCn1c(SCC(=O)NCCc2ccccc2)nc2sc3c(c2c1=O)CCN(C)C3	> 4.82	3.1	> 100
Cc1c(C=O)c2ccccc2n1CC(=O)Nc1cccc(I)c1	0.365	0.405	> 61.2
CN1CCN(C(=O)c2cccc(-c3nc(-c4ccncc4)cnc3N)c2)CC1	> 1	> 1.25	> 10
Nc1c(C(=O)c2ccc(Br)cc2)sc2nc(-c3cccnc3)ccc12	1.3	> 1.09	> 13
O=C(COc1ccccc1Cl)OCc1cc(=O)n2nc(C3CC3)sc2n1	> 0.803	> 1.25	> 10
C[C@@H]1CCC[C@@H](C[C@H]2Cc3cc(O)cc(O)c3C(=O)O2)O1	0.0454	0.0927	> 100
COc1cc(C(=O)NC(c2ccc3c(c2)OCO3)c2cc(Cl)c3cccnc3c2O)cc(OC)c1OC (stereo not given)	0.428	0.698	> 10
CC(=O)N(C1=C(N(C)C)C(=O)c2ccccc2C1=O)c1cccc(Cl)c1	0.0273	0.0649	3.18
COc1cccc(-c2ccc(O)c(CNC34CC5CC(CC(C5)C3)C4)c2)n1	0.207	0.05	> 100
Cc1ccn2c(NC(C)(C)CC(C)(C)C)c(-c3ccccc3OC(=O)c3ccc4ccccc4c3)nc2c1	0.729	0.152	> 10
CCc1ccc(-n2c(C(CC)N(CCc3ccc(OC)c(OC)c3)C(=O)C(CC)c3ccccc3)nc3ccccc3c2=O)cc1 (stereo not given)	> 1.25	> 0.867	> 10
O=C(Nc1ccc(Cl)c(C(F)(F)F)c1)NC1CC2CCC(C1)N2C1CCCC1 (stereo not given)	0.541	0.81	> 10
COc1ccc(/C=C/C(=O)Nc2ccc(S(=O)(=O)N3CCOCC3)cc2)cc1	> 1.62	0.891	> 10
Oc1ccc(C2Nc3ccc4ccccc4c3C3C=CCC32)cc1 (stereo not given)	0.812	0.292	> 100
CCC(C)NC(=O)c1c[nH]c2ccc(S(=O)(=O)N3CCc4ccccc43)cc2c1=O (stereo not given)	> 1.25	0.424	> 10
CC[n+]1c(/C=C/c2ccc(SC)cc2)ccc2ccccc21	0.0436	0.102	> 10
CCOC(=O)C(=O)N1c2ccc(C)cc2C(C)(c2ccccc2)CC1(C)C (stereo not given)	2.13	> 1.25	> 10
O=C1c2cc([N+](=O)[O-])ccc2-n2c1nc1ccccc1c2=O	0.148	0.101	> 10
CN1C=C(c2ccc3ccccc3n2)C(c2c[nH]c3ccccc23)c2ccccc21 (stereo not given)	1.14	1.21	> 100
CC(C)c1ccc(NC(=O)C(Cc2cccs2)c2nnn[nH]2)cc1 (stereo not given)	11.3	1.57	> 100
COc1cc(C(Nc2ccccn2)c2ccc3cccnc3c2O)cc(Br)c1OC (stereo not given)	0.368	0.219	> 35
O=C(O)/C=C\C(=O)N(C1CCCCC1)C1CCCCC1	> 1.25	> 0.708	> 10
N#Cc1cc2[nH]c3ccccc3c2n(-c2ccc([N+](=O)[O-])cc2)c1=N	0.53	3.44	> 100

Structure (SMILES)	EC50 (Plasmodium falciparum [1]) [µM]	EC50 (Plasmodium falciparum [2]) [µM]	CC50 [3] [µM]
Nc1nc(N)c2cc(S(=O)(=O)N3CCOCC3)ccc2n1	0.0626	> 12.5	5.05
Cc1ccn2c(NC(C)(C)CC(C)(C)C)c(-c3ccccc3OC(=O)C(C)(C)CCl)nc2c1	0.699	0.0763	> 10
COc1ccc(C=CC(=O)NC(=O)c2ccccc2O)cc1OC	1.29	1.39	> 100
CCC(c1nc2ccccc2c(=O)n1CC)N1CCN(C(=O)Nc2ccccc2C(F)(F)F)CC1 (stereo not given)	1.3	> 1.25	> 10
CCc1c(C)c(C#N)c2nc3ccccc3n2c1NCc1ccccc1	0.787	0.238	> 100
Oc1c2c(nc3cc(-c4ccc(-c5ccccc5)cc4)nn13)CCCC2	1.14	1.02	> 73.8
CC1=C(C(=O)OC(C)C)C(c2ccc(Br)cc2)C2=C(CC(c3ccc(Cl)cc3)CC2=O)N1 (stereo not given)	1.44	0.404	> 100
CCCCN(CCCC)CC(O)c1cc(Cl)cc2c1-c1ccc(Cl)cc1/C2=C/c1ccc(Cl)cc1 (stereo not given) [LUMEFANTRINE]	0.777	0.518	> 10
COc1ccc2nc(C)cc(Nc3ccc(Cl)c(Cl)c3)c2c1	0.249	0.426	6.25
O=C(NNS(=O)(=O)c1ccccc1[N+](=O)[O-])c1ccccc1	> 1.25	> 0.833	> 10
CCCCCCCN(CCCCCCC)CC(O)c1cc2ccccc2c2cc(Br)ccc12 (stereo not given)	0.867	0.137	> 4.63
CCN1C(=S)NC2c3cc(C)ccc3OC13CCCC23 (stereo not given)	0.164	0.111	> 100
CCOCCCN(C(=O)C(F)(F)F)C(C(=O)NC1CCCCC1)c1ccncc1 (stereo not given)	1.87	> 1.62	> 10
CC1(C)N=C(N)N=C(N)N1c1ccc(I)cc1	0.00723	> 12.5	> 100
COc1ccc(-c2c[n+](CC(=O)c3ccccc3)c3n2CCC3)cc1	1.2	0.571	> 100
COc1ccc(-c2nc(CN3CCCCC3)ccc2O)cc1	0.131	0.03	> 10
CCOc1cc(Br)cc(C=NNC(=O)COc2cccc(C)c2)c1O	7.52	> 12.5	> 46.2
O=C(NN=Cc1cccc(Cl)c1)C1COc2ccccc2O1 (stereo not given)	> 0.935	> 0.144	> 10
COc1ccc(-c2nc(NC(=O)CS(=O)(=O)c3ccccc3)sc2C)cc1	0.505	2.31	> 100
COc1ccc(C2C3=C(O)CC(C)(C)CC3=Nc3[nH]nc(C)c32)cc1 (stereo not given)	> 3.32	> 12.5	> 100
N#CC1=C(N)Oc2c(c(=O)oc3ccccc23)C1c1ccoc1 (stereo not given)	> 1.16	> 1.66	> 10
CCCCn1c(=N)n(CC(O)c2ccc(Br)cc2)c2ccccc21 (stereo not given)	0.466	0.141	22.5
